Experimental data as given in patent publication US20260174677A1, “METHODS OF TREATING INSULIN RESISTANCE AND ASSOCIATED DISORDERS” (The University of Melboune, priority 2022, published 2026).

Tests used:
[1] = I.C.V. fluorosamine in mouse model of late-stage type-2 diabetes (HFHS plus low dose streptozotocin); assay type: in vivo; conditions: I.C.V. daily for 14 days, HFHS plus low dose streptozotocin mice
Procedure: Mice were maintained on a 12 h light-dark cycle in a temperature-controlled high-barrier facility with free access to food and water per NHMRC Australian Code of Practice for the Care and Use of Animals. C57BL/6J and Balb/C mice were sourced from the Animal Resources Centre, Australian, whereas Agrp-IRES-Cre (Strain #:012899), db/db (strain #: 000697), Npy-GFP (Strain #:006417), Pomc-GFP (Strain #:009593), LSL-Cas9 (Strain #:028551), NZO (Strain #:002105) mice were sourced from Jackson Laboratories, USA. […]
Metabolic measurements were undertaken in the Melbourne Mouse Metabolic Phenotyping Platform (The University of Melbourne, Australia). […] The areas under glucose excursion curves were determined and expressed as mmol/1×min. Fasted (12 h fast) plasma insulin or glucose levels were determined using a Rat/Mouse Insulin ELISA (EZRMI-13K, Merck Millipore, CA) or an Accu-Check glucometer respectively. The HOMA-IR was calculated using the equation [(glucose×insulin)/405]. Adiposity was measured using TD-NMR minispec (Bruker Optics Inc., Billerica, MA). […]

[2] = I.C.V. fluorosamine: hyperinsulinemic-euglycemic clamps in weight matched obese mice; assay type: in vivo, mouse; conditions: I.C.V. daily for 3 days
Procedure: For hyperinsulinemic-euglycemic clamps, mice were anesthetised under isoflurane and the right jugular vein was catheterised for infusions, as described previously by Dodd et al., 2018. Catheters were attached to an implant button (BMSW25, RWD Life Sciences, Shenzhen, China). Implant buttons were capped allowing for group mousing of mice and catheters were kept patent by flushing daily with 40 μL saline containing 200 units/mL heparin. On the day of the experiment, food was removed at 7:00 A.M. After 3.5 h fasting, a primed (1 min, 1.25 uCi/min) continuous infusion (0.05 uCi/min) of [3-3H]glucose (NET331A001MC, PerkinElmer, MA) was administered to measure whole-body glucose turnover, as described previously by Dodd et al., 2018. 90 minutes later, mice received a 40 mU/Kg insulin bolus over 10 mins which was followed by continuous insulin infusion (4 mU/kg/min in gelofusine). Euglycemia (˜8-10 mM blood glucose) was maintained by a variable infusion of a 30% glucose solution.
Tail blood samples were collected during steady-state conditions (Ra=Rd) and at 80, 90, 100, 110, and 120 min for determination of Rd and Ra, as described above. At 120 mins, a 13 uCi bolus of [^14C]-2-deoxy-D-glucose (NEC495A250UC, PerkinElmer, MA) was injected into the jugular vein, and blood was sampled at 122, 125, 135, 145, and 155 min. […]

[3] = Intranasal PZ6005 in diet-induced obese mice: body weight, tissue mass and fat mass; assay type: in vivo, mouse
Procedure: Metabolic measurements were undertaken in the Melbourne Mouse Metabolic Phenotyping Platform (The University of Melbourne, Australia). Glucose tolerance tests were performed on 6 h fasted conscious mice respectively by injecting D-glucose (2 mg/g of lean body mass and 1 mg/g lean mass for db/db and HFHS+STZ mice) into the peritoneal cavity and measuring glucose in tail blood immediately before and at 15, 30, 45, 60, 90 and 120 min after injection using an Accu-Check glucometer (Roche, Germany). The areas under glucose excursion curves were determined and expressed as mmol/1×min. Fasted (12 h fast) plasma insulin or glucose levels were determined using a Rat/Mouse Insulin ELISA (EZRMI-13K, Merck Millipore, CA) or an Accu-Check glucometer respectively. The HOMA-IR was calculated using the equation [(glucose×insulin)/405]. Adiposity was measured using TD-NMR minispec (Bruker Optics Inc., Billerica, MA).
Conscious mice were restrained by scruffing and inverted parallel to the floor with the chin at ˜180-degree angle with the neck. Using a 10 μL tip, a pipettor was loaded with 5 μl of vehicle (ddH2O) or fluorosamine (1 mg/animal in 20 μl or 5 mg/animal in 20 μl). The tip of the filled pipettor was placed near the left nostril at a 45-degree angle, and the drug was ejected to form a small 5 μl droplet at tip for the mouse to inhale. Immediately after the mouse inhaled the first droplet the remaining solution was ejected to form another small droplet for the mouse to inhale through the same nostril. The mouse was held in this position for 15 seconds before the procedure was repeated in the right nostril. The mouse was returned to the cage for 2 minutes and the process was repeated so that each mouse received four droplets of 5 μl each, delivering a total of 20 μl of solution. All drugs were administered delivered approximately 1 h before lights off […].
Changes in body weight of 12-week-HFHS-diet-fed obese mice during 14 days of intranasal administration of either vehicle or PZ6005 (1 or 5 mg/animal/day). Intranasal PZ6005 treatment induce weight loss in a dose-dependent manner, as assessed by significant differences in weight changes across groups. […] At the end of the experiment, mice in the highest dose of PZ6005 treatment had lost […] and those in the 1 mg treatment had lost […], whereas control littermates maintained at 3.57±1.28% of body weight (FIG. 10a).
To determine the influence of intranasal PZ6005-mediated attenuated neurofibrosis on tissue-specific adiposity and body composition, peripheral tissues and fat mass of the mice were weighed following the 14-day administration. […] Moreover, the reduction in overall fat mass depended upon the doses of PZ6005.

[4] = I.N. 1 mg/animal/day, 14 days, obese mice
[5] = I.N. highest dose (5 mg/animal/day), 14 days, obese mice

CC(=O)NC1C(OC(C)=O)OC(COC(C)=O)[C@@H](F)C1OC(C)=O (stereo partly drawn) [fluorosamine, per-O-acetylated-4-F-N-acetylglucosamine]
remission of metabolic disease (daily blood glucose, glucose tolerance) [1]: promote the remission of metabolic disease
whole-body insulin sensitivity (GIR) in clamp [2]: enhancement of whole-body insulin sensitivity
body weight lost at the end of the experiment [3, 4]: 16.32±1.41%
mass of epiWAT, BAT and liver [3, 4]: decreased
post-treatment fat mass decrease compared to pre-treatment mass [3, 4]: 12.59±2.29%
day from which weight was robustly decreased ([3]; I.N. 1 mg/animal/day, obese mice): 7 days
day on which 5 mg treatment began to significantly reduce more weight than 1 mg treatment ([3]; I.N. 5 mg vs 1 mg/animal/day, persisted to day 14): 9 days
post-treatment fat mass decrease compared to pre-treatment mass ([3]; I.N. 5 mg/animal/day, 14 days, obese mice): 23.21±9.27%
day from which weight was robustly decreased ([3]; I.N. 5 mg/animal/day, obese mice): 3 days
body weight lost at the end of the experiment [3, 5]: 6.36±0.88%
tissue mass (adipose tissues and liver) [3, 5]: remarkedly reduced tissue mass
whole-body metabolic improvements ([3]; intranasal, 14 days, diet-induced obese mice, compared with I.C.V. delivery): recapitulated the whole-body metabolic improvements observed with intracerebroventricular delivery
